Laboratory results as given in PubChem BioAssay AID1352 (Sanford-Burnham Center for Chemical Genomics, 2008).
The source made the active and inactive calls.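 How the source made its calls: active means compound at 25 µM lifting cell survival 30% over the thapsigargin-only control at any thapsigargin dose; inactive means the rest.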

Tested on: differentiated PC12, thapsigargin-induced death, ATPlite luminescence, 24 h
Assay: ER stress death protection in PC12 neurons – cell-based, differentiated PC12, rat pheochromocytoma, ATP luminescence, SAR follow-up (AID 1352)
Details: at 25 µM, stronger effect = higher value; for survival: measured here: survival

Structure (SMILES) | survival vs thapsigargin 6.25 uM | survival (thapsigargin 0.25 uM) [%] | survival (thapsigargin 1.25 uM) [%]
COc1ccc(C2CC(=O)C3=C(C2)Nc2ccccc2NC3c2ccccc2C(F)(F)F)cc1OC (stereo not drawn) | 34% (inactive) | 30 | 25
CCOc1cccc(C2Nc3ccccc3NC3=C2C(=O)CC(c2ccc(OC)cc2)C3)c1 (stereo not drawn) | 32% (inactive) | 26 | 19
CSc1ccc(C2Nc3ccccc3NC3=C2C(=O)CC(c2ccccc2)C3)cc1 (stereo not drawn) | 30% (inactive) | 22 | 17
O=C1CC(c2ccccc2)CC2=C1C(c1c(F)cccc1Cl)Nc1ccccc1N2 (stereo not drawn) | 39% (inactive) | 38 | 19
COc1ccc(C2CC(=O)C3=C(C2)Nc2ccccc2NC3c2cccc(Oc3ccccc3)c2)cc1OC (stereo not drawn) | 25% (inactive) | 21 | 16
CCCOc1ccc(C2Nc3ccccc3NC3=C2C(=O)CC(c2ccc(OC)c(OC)c2)C3)cc1 (stereo not drawn) | 33% (inactive) | 32 | 22
CC1(C)CC(=O)C2=C(C1)Nc1ccccc1NC2c1ccc(-c2ccccc2)cc1 (stereo not drawn) | 81% | 76 | 41
COc1ccc(C2CC(=O)C3=C(C2)Nc2ccccc2NC3c2cccc(C(F)(F)F)c2)cc1OC (stereo not drawn) | 78% | 44 | 48
CCOc1cc(C2Nc3ccccc3NC3=C2C(=O)CC(c2ccc(OC)cc2)C3)cc(Cl)c1O (stereo not drawn) | 44% | 59 | 38
COc1ccc(C2CC(=O)C3=C(C2)Nc2ccccc2NC3c2cccc(Br)c2)cc1OC (stereo not drawn) | 54% | 54 | 37
COc1ccc(C2CC(=O)C3=C(C2)Nc2ccccc2NC3c2cc(C)ccc2C)cc1 (stereo not drawn) | 38% | 51 | 29
